Assay: Solubilities of sesamin, episesamin and their mixture in various oils or fats
Type: physicochemical
Method: To prepare the lignan-class compound containing emulsion of the present invention, liquid in which a lignan-class compound is dissolved (oil phase) is first prepared. As already mentioned, a sesame oil or the like may be used as the liquid, alternatively, the liquid may be prepared by adding a powdered form of lignan-class compound to a solvent oil or fat, mixing the mixture, and fully dissolving the powdered form to the solvent while agitating the mixture while heating. The blending ratio between the lignan-class compound and the fat or oil varies with the type of the lignan-class compound and the fat, or oil that serves as a solvent and it can be set appropriately in consideration of this fact. The assignees of the subject application have discovered that two lignan-class compounds, sesamin and episesamin, and a mixture thereof had different solubilities in different fats or oils (see Table 1).

SMILES | Solubilities (%) in DG [%] | Solubilities (%) in MCT-1 [%] | Solubilities (%) in MCT-2 [%] | Solubilities (%) in Olive oil [%] | Solubilities (%) in Wheat germ oil [%]
c1cc2c(cc1[C@H]1OC[C@H]3[C@@H]1CO[C@@H]3c1ccc3c(c1)OCO3)OCO2 [Episesamin, episesamin] | 1.0 | 2.5 | 2.5 | 0.5 | 0.75
c1cc2c(cc1[C@H]1OC[C@H]3[C@@H]1CO[C@@H]3c1ccc3c(c1)OCO3)OCO2 [Sesamin, sesamin] | 1.25 | 4.0 | 2.0 | 0.75 | 0.75
